Source: patent US20220273684A1, “Systems and Methods to Identify Pancreatic Ductal Adenocarcinoma and Uses Thereof” (The Board of Trustees of the Leland Stanford Junior …, priority 2021, published 2022)

Experiments:
[1] = test system: acinar cell-derived PDAC cell lines; assay: Cell viability assay (MTT) after incubation with drug, acinar cell-derived PDAC cell lines; type: cell-based
Description: (§1) FIGS. 4A-4E illustrate exemplary data that acinar and ductal cell-derived pancreatic cancer cells have different sensitivities to multiple therapeutic agents in accordance with various embodiments of the invention. FIG. 4A illustrates an exemplary method to identify agents to treat specific types of tumors and/or treating an individual based on tumor signature. FIG. 4B illustrates a schematic of the experimental setup. FIG. 4C illustrates cell viability after a 24 hour incubation with 25 μM of GSK-3β inhibitor, TDZD-8. FIG. 4D illustrates cell viability after a 48 hour incubation with 1 mM of glucose analog, 2-DG. FIG. 4E illustrates cell viability after a 72 hour incubation with 100 μM of AKT kinase inhibitor, Capivasertib.
Turning to FIGS. 4A-4E, various embodiments are capable of identifying agents to treat specific types of tumors and/or treating an individual based on tumor signature. Specifically, FIG. 4A illustrates a method 400 to test one or more treatments against tumor-derived cells. At 402, many embodiments obtain one or more cultures of cells. […]
Turning back to FIG. 4A, after treatment, many embodiments assess cellular growth at 408. Cellular growth can be assessed manually or automatedly. […]

[2] = test system: ductal cell-derived PDAC cell lines; assay: Cell viability assay (MTT) after incubation with drug, ductal cell-derived PDAC cell lines; type: cell-based; conditions: 72 hour incubation with 100 μM Capivasertib; ductal cell-derived relative to acinar cell-derived PDAC lines (FIG. 4E)
Description: as §1, with “Capivasertib. Turning to FIGS. 4A-4E, various embodiments are capable of identifying agents to treat specific types of tumors and/or treating an individual based on tumor signature. Specifically, FIG. 4A illustrates a method 400 to test one or more treatments against tumor-derived cells. At 402, many embodiments obtain one or more cultures of cells. In various embodiments, the derived tumor cells are obtained as an admixture of cells, while some embodiments obtain cells as a single type (e.g., healthy, acinar cell-derived, or ductal cell-derived). […] Cellular growth can be assessed manually or automatedly. […]” for “Capivasertib.”

Compound: OCC1OC(O)CC(O)C1O (stereo not drawn) [2-DG]
- cell viability ([1]; 48 hour incubation with 1 mM 2-DG, acinar cell-derived relative to ductal cell-derived PDAC lines (FIG. 4D)): increased viability

Compound: NC1(C(=O)N[C@@H](CCO)c2ccc(Cl)cc2)CCN(c2ncnc3[nH]ccc23)CC1 [Capivasertib]
- cell viability [2]: increased viability

Compound: Cn1sc(=O)n(Cc2ccccc2)c1=O [TDZD-8]
- cell viability ([1]; 24 hour incubation with 25 μM TDZD-8, acinar cell-derived relative to ductal cell-derived PDAC lines (FIG. 4C)): increased viability
